A word on the pIC50: it is the IC50 on a negative log10 scale, so that one unit is a factor of ten. Broadly, the Kp is the ratio of the level in a tissue or fluid to that in plasma or blood. A word on the chromatographic logD: it is lipophilicity estimated from chromatographic retention.

Here are results for 3 compounds from PMC12621189, “Optimization of Selective and CNS Penetrant Alkyne-Based TREK Inhibitors: The Discovery and Characterization of ONO-9517601 (VU6022856) and ONO-7927846 (VU6024391)” (Journal of Medicinal Chemistry, 2025).

pIC50: −log10 of the molar value.

One series addresses T1, human TREK-1 (hTREK-1) (Homo sapiens, UniProt O95069).
T1 construct: expressed in transfected cells
T1 sequence (O95069 1-426): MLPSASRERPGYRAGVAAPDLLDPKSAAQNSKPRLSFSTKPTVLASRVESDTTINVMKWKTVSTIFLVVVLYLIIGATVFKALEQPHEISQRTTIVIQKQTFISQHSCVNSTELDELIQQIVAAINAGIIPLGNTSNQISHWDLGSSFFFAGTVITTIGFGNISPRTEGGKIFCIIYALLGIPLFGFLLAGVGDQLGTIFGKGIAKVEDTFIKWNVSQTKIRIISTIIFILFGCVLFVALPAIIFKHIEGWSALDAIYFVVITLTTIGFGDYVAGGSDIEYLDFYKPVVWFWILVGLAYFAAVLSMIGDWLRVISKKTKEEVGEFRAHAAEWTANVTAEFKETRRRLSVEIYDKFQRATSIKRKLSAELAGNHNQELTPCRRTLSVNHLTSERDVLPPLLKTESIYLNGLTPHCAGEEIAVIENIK
The series is described as follows: TREK-1 thallium flux assay (CHO-K1 cells stably expressing hTREK-1). Format: cell-based. The settings on record: human TREK-1, thallium flux; read-out: h TREK-1 Tl+ IC50. The method, then:
Procedures for Biological Experiments
TREK-1 Thallium flux assay
CHO-K1 cells stably expressing hTREK-1 were cultured in T225 flask. The cells were loaded with FluxOR dye and plated in 384 well plate at the experiment day. Test compounds or control compound (tert-butyl (3-((4-(benzyloxy)-2-methylphenyl)carbamoyl)-4-chlorophenyl)carbamate) or 0.3% DMSO (vehicle control) were added directly to the cell plates and incubated for 10 min, and then treated with thallium stimulus buffer to initiate thallium flux.
To measure the efficacy and potency of test compounds, the change in fluorescence intensity (ΔRatio) and % inhibition were calculated using the following equations:
ΔRatio = (fluorescence intensity at 25 seconds after thallium addition)/(average of fluorescent intensity before thallium addition)
0.3% DMSO - ΔRatio of 10 μM control compound)}x100
% inhibition vs compound concentration were plotted in XLfit and calculated IC50.
CHO-K1 cells stably expressing human TREK-1 (hTREK-1) were cultured in T225 flask.
The cells were loaded with FluxOR dye and plated in 384 well plate at the experiment day. Test compounds or control compound (tert-butyl (3-((4-(benzyloxy)-2-methylphenyl)carbamoyl)-4-chlorophenyl)carbamate) or 0.3% DMSO (vehicle control) which were prepared on separate plates were added to the cell plates and incubated for 10 min, and then the cells with test compounds or […]
chlorophenyl)carbamate) or 0.3% DMSO (vehicle control) were treated with thallium stimulus buffer to initiate thallium flux. To measure the efficacy and potency of test compounds, the change in fluorescence intensity (ΔRatio) and % inhibition were calculated using the following equations: […]

Series [1] is described as follows: Liver microsome intrinsic clearance, human. In kind it is in vitro ADME. The settings on record: pH 7.4; human liver microsomes, predicted intrinsic clearance; read-out: LMS CLINT human. The protocol: were incubated in 100 mM potassium phosphate pH 7.4 buffer with 3 mM MgCl2 at 37 °C with constant shaking. After a 5 min preincubation, the reaction was initiated by the addition of NADPH (1 mM). At selected time intervals (0, 3, 7, 15, 25, and 45 min), aliquots were taken and subsequently placed into a 96-well plate containing cold acetonitrile with internal standard (50 ng/mL carbamazepine). Plates were then centrifuged at 3000 rcf (4 °C) for 10 min, and the supernatant was transferred to a separate 96-well plate and diluted 1:1 with water for LC/MS/MS analysis. The in vitro half-life ( 1/2, min, Eq. 1), intrinsic clearance (CLint, mL/min/kg, Eq. 2), and subsequent predicted hepatic clearance (CLhep, mL/min/kg, Eq. 3) was determined employing the […]
where k represents the slope from linear regression analysis of the natural log percent remaining of a test compound as a function of incubation time […]
(2) CLint = in vitroT x mg microsomes x gram liver x kg body wt ascale-up factors: of 20 (human) or 45 (rat) […]
where Qh (hepatic blood flow, mL/min/kg) is 21 (human) or 70 (rat).
LC/MS/MS Bioanalysis of Samples from Plasma Protein Binding and Intrinsic Clearance […]
Samples were analyzed on a Thermo Electron TSQ Quantum Ultra triple quad mass spectrometer (San Jose, CA) via electrospray ionization (ESI) with two Themo Electron Accella pumps (San Jose, CA), and a Leap Technologies CTC PAL autosampler (Carrboro, NC). Analytes were […]

A short description of series [2]: Rat brain to plasma ratio (Kp, Kp,uu). The settings on record: male, Sprague Dawley, brain and plasma, intravenous, 0.2 mg/kg; rat brain:plasma. In kind it is in vivo. The method, then: Determination of brain to plasma ratio:
All animal study procedures were approved by the Institutional Animal Care and Use Committee and were conducted in accordance with the National Institutes of Health regulations of animal care covered in Principles of Laboratory Animal Care (National Institutes of Health). All rats were fasted overnight prior to testing.
For determination of the brain over plasma ratio (Kp), compounds were formulated in 8% ethanol, 32% PEG400 and 60% DMSO (v/v/v) and administered as a single 0.2 mg/kg IV dose (1 mL/kg) to male, Sprague Dawley rats (n = 1) via injection into a surgically-implanted jugular vein catheter. At 15 min post dosing, blood sample was collected into chilled, K2EDTA anticoagulant-fortified tube and immediately placed on wet ice. The blood sample was then centrifuged (1700 rcf, 5 minutes, 4 °C) to obtain plasma sample. At the same post-administration time point, whole brain sample was obtained by rapid dissection, rinsed with PBS, and immediately frozen in individual tissue collection box (dry ice). All brain and plasma samples were stored at -80 °C until […]
Sample Analysis: Concentrations in plasma and brain homogenates were quantified by liquid chromatography tandem mass spectrometry (LC-MS/MS). Whole brains were homogenized in 3 mL of 70:30 IPA:water in a mini bead beater for 3 min, and centrifuged at 3,500 g for 5 min. 5 uL of the supernatant was diluted in 15 uL of blank plasma for quantification of the analytes. Plasma samples were centrifuged at 3,500 g for 5 min. A standard curve was generated by diluting the analytes DMSO stocks with blank plasma to obtain a final concentration of 10,000 ng/ml followed by a serial dilution down to 0.5 ng/ml. Quality controls were generated by a serial dilution of the 5,000 ng/ml standard curve solution in blank plasma to obtain 3 concentrations of 500, 50, and 5 ng/ml. 20 uL of brain diluted in plasma, plasma, blank plasma, standard curve and QC samples were loaded in a V-bottom 96-well plate. 120 uL of acetonitrile containing 0.05 uM carbamazepine (internal standard) was added to each well and the plate was centrifuged at 3,500 g for 5 min. 60 uL of the supernatant of each well (protein free) was transferred to a new 96-well plate containing 60 uL of water. The plates were sealed for analysis by LC-MS/MS.
Plasma and brain tissue samples originating from in vivo studies were analyzed by electrospray ionization using an AB Sciex Q-TRAP 5500 (Foster City, CA) that was coupled to a Shimadzu LC-20AD pump (Columbia, MD) and a Leap Technologies CTC PAL auto-sampler (Carrboro, NC). Analytes were separated by gradient elution using a C18 column (3 x 50 mm, 3 mm; Fortis Technologies Ltd, Cheshire, UK) that was thermostated at 40 °C. HPLC mobile phase A was 0.1% formic acid in water (pH unadjusted); mobile phase B was 0.1% formic acid in acetonitrile (pH […]
min, with an isocratic hold for 0.5 min, before transitioning to 10% B over 0.05 min. The column was re-equilibrated (1 min) before the next sample injection. The total run time was 2.55 min, and the HPLC flow rate was 0.5 ml/min. The source temperature was set at 500 °C, and mass spectral analyses were performed using a Turbo-Ion spray source in positive ionization mode (5.0-kV spray voltage) and using multiple-reaction monitoring of transitions specific for the analytes. All data were analyzed using AB Sciex Analyst 1.5.1 software.
Brain plasma concentration ratio (Kp) was calculated by dividing brain concentration by plasma concentration for each animal. Unbound brain to unbound plasma concentration ratio (Kp,uu) is calculated using the following formula: Kp,uu = (Brain ng/g x brain fu)/(plasma ng/ml x plasma fu).
In-vitro determination of blood-brain barrier penetration potential
Blood-brain barrier penetration was determined using MDR1-MDCK cell monolayers by Absorption Systems, following their protocol. In short, compounds were incubated at […] final concentration on one side of the cell monolayer for 2 hours. […]

Series [3] is described as follows: Liver microsome intrinsic clearance, mouse. Format: in vitro ADME. The settings on record: pH 7.4; mouse liver microsomes, predicted intrinsic clearance; read-out: LMS CLINT mouse.
A further series is described as follows: ChromatoLogD. Format: physicochemical.
Series [4] in a line: Rat in vivo PK (plasma clearance) in SAR tables. The conditions noted are these: read-out: Rat CLp.
The target in another series is T2, hTREK-1 (Homo sapiens, UniProt O95069).
T2 construct: expressed in transfected cells
T2 sequence (O95069 1-426): T1 sequence (O95069 1-426)
The series is described as follows: hTREK-1 manual patch clamp assay. The conditions noted are these: human TREK-1, manual patch clamp; read-out: TREK-1 IC50 (human, MPC). In kind it is cell-based. The method, then:
(§1) hTREK-1 and mTREK-1 patch clamp assay
(§2) CHO-K1 cells stably expressing hTREK-1 or CHO-K1 cells transiently expressing mouse TREK-1 (mTREK-1) were plated on glass coverslips, and voltage clamped in the whole-cell configuration of the patch clamp technique. Cells were voltage clamped at a holding potential of - 80 mV and the stepped to 0 mV for 500 msec. The voltage was subsequently ramped from -120mV to +80 mV over a 500 msec duration. This step-ramp protocol was repeated every 10 sec. The bathing solution contained the following: 135 mM NaCl, 5 mM KCl, 2 mM CaCl2, 1 mM MgCl2, 5 mM D-Glucose, 10 mM HEPES, 10 mM sucrose (adjusted to pH 7.4 with NaOH, 300 mosmol/kg H2O). The pipette solution contained the following: 135 mM KCl, 2 mM MgCl2, 1 mM EGTA, 10 mM HEPES, 2 mM Na2ATP (adjusted to pH 7.35 with KOH, 285 mosmol/kg H2O). Test […]
(§3) compounds were dissolved into the bathing solution. The effects of test compound on the currents were calculated at 0 mV using the following equations:
(§4) % inhibition = (1-post current/pre current) x 100
(§5) % inhibition vs compound concentrations were plotted in GraphPad Prism and calculated IC50. […]
Background: Patch clamp records ionic current or voltage across a cell membrane.

The next series has as its target T3, mouse TREK-1 (mTREK-1) (Mus musculus, UniProt P97438).
T3 construct: expressed in transfected cells; host or cells: CHO-K1 (transient)
T3 sequence (P97438 1-426): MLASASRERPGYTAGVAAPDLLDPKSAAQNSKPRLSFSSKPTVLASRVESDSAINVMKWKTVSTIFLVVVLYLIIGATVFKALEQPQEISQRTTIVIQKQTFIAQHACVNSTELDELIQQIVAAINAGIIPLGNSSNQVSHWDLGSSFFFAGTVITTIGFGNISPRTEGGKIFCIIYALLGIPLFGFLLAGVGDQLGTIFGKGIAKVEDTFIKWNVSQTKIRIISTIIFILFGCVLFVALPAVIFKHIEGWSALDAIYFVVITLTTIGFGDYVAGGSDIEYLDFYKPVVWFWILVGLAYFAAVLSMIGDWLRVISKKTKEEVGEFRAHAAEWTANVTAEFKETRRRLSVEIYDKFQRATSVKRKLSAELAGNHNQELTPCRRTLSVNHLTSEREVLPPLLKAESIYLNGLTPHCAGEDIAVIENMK
Kind of series: mTREK-1 manual patch clamp assay. Format: cell-based. The settings on record: mouse TREK-1, manual patch clamp; read-out: TREK-1 IC50 (mouse, MPC). The protocol:
as §1, §2, §3, §4, §5

Take `Cc1cc(C#Cc2ccccc2)cnc1NC(=O)c1cc(C(=O)N2CC(F)(F)C2)ccc1Cl` [Compound 13a, 2-Chloro-5-(3,3-difluoroazetidine-1-carbonyl)-N-[3-methyl-5-(2-phenylethynyl)-2-pyridyl]benzamide]: on human TREK-1 (hTREK-1), the pIC50 is 6.49. Besides, the CLint scaled at 1 µM is 18 mL/min/kg in series [1] and 75 mL/min/kg in series [3]. In series [2], the partition ratio (Kp) at 15 min worked out at 0.84. In “ChromatoLogD”, this compound registered a chromatographic logD of 4.03. Further, the clearance in series [4] is 328 mL/min/kg.
For the compound `Cc1cc(C#Cc2ccccc2)cnc1NC(=O)c1cc(OCC2COCCO2)ccc1Cl` (stereo not shown) [Compound 13c, 2-Chloro-5-(1,4-dioxan-2-ylmethoxy)-N-[3-methyl-5-(2-phenylethynyl)-2-pyridyl]benzamide], the negative logarithm of the IC50 (pIC50) on human TREK-1 (hTREK-1) is 6.89. In addition, the CLint scaled at 1 µM in series [1] was 36 mL/min/kg; in series [3] it was 107 mL/min/kg. Further, the Kp at 15 min in series [2] stood at 0.89. This compound had a chromatographic logD in “ChromatoLogD” of 4.14. Moreover, in series [4], the clearance was 16.2 mL/min/kg.
With `Cc1cc(C#Cc2ccccc2)cnc1NC(=O)c1cc(OC[C@H]2COCCO2)ccc1Cl` [Compound 13d, (R)-5-((1,4-Dioxan-2-yl)methoxy)-2-chloro-N-(3-methyl-5-(phenylethynyl)pyridin-2-yl)benzamide], the pIC50 on human TREK-1 (hTREK-1) was 6.96; on hTREK-1, 7.96; at mouse TREK-1 (mTREK-1) it was 5.92. In “ChromatoLogD”, the chromatographic logD was 4.14.
